Experimental data published in patent US20050009845A1, “Thienopyrimidine compounds as protein tyrosine kinase inhibitors” (priority 2001, published 2005).
Where a name gives a salt, the structure may show the parent alone.

Assays:
[1] = system: BT474 tumor cell line; assay: Methylene blue growth inhibition assay, BT474; assay type: cell-based; conditions: Homo sapiens, BT-474, 72 h; BT474, 3 days, IC50 classes
Procedure: Human breast (BT474), head and neck (HN5) and gastric tumor (N87) cell lines and human foreskin Fibroblasts (HFF) were cultured in low glucose DMEM (Life Technologies 12320-032) containing 10% fetal bovine serum (FBS) at 37° C. in a humidified 10% CO2, 90% air incubator. The SV40 transformed human mammary epithelial cell line HB4a was transfected with either human H-ras cDNA (HB4a r4.2) or the human c-ErbB2 cDNA (HB4a c5.2). The HB4a clones were cultured in RPMI containing 10% FBS, insulin (5 μg/ml), hydrocortisone (5 μg/ml), supplemented with the selection agent hygromycin B (50μg/ml). Cells were harvested using trypsin/EDTA, counted using a haemocytometer, and plated in […] of the appropriate media, at the following densities, in a 96-well tissue culture plate (Falcon 3075): BT474 10,000 cells/well, HN5 3,000 cells/well, N87 10,000 cells/well, HB4a c5.2 3,000 cells/well, HB4a r4.2 3,000 cells/well, HFF 2500 cells/well. The next day, compounds were diluted in DMEM containing […] gentamicin, at twice the final required concentration, from 10 mM stock solutions in DMSO. […] of these dilutions were added to the […] of media currently on the cell plates. Medium containing 0.6% DMSO was added to control wells. Compounds diluted in DMEM were added to all cell lines, including the HB4a r4.2 and HB4a c5.2 cell lines. The final concentration of DMSO in all wells was 0.3%. Cells were incubated at 37° C., 10% CO2 for 3 days. Medium was removed by aspiration. Cell biomass was estimated by staining cells with 100 μl per well methylene blue (Sigma M9140, 0.5% in 50:50 ethanol:water), and incubation at room temperature for at least 30 minutes. Stain was removed, and the plates rinsed under a gentle stream of water, and air-dried. To release stain from the cells 100 μl of solubilization solution was added (1% N-lauroyl sarcosine, Sodium salt, Sigma L5125, in PBS), and plates were shaken gently for about 30 minutes. Optical density at 620 nm was measured on a microplate reader. Percent inhibition of cell growth was calculated relative to vehicle treated control wells. Concentration of compound that inhibits 50% of cell growth (IC50) was interpolated using nonlinear regression (Levenberg-Marquardt) and the equation, y=Vmax*(1−(x/(K+x)))+Y2, where “K” was equal to the IC50.
Table I illustrates the inhibitory activity of compounds of the present invention as IC50 values in μM against and the BT474 tumor cell line. Using HFF as a representative, human, normal cell line, values for cytotoxicity are supplied as IC50 values in micromolar.

[2] = target: T1, ErbB-2 (Homo sapiens, UniProt P04626); assay: ErbB-2 substrate phosphorylation enzyme assay (scintillation proximity); assay type: biochemical; conditions: ErbB-2, pIC50 classes
T1 construct: made in house
T1 sequence (P04626 691-1255 limits assumed): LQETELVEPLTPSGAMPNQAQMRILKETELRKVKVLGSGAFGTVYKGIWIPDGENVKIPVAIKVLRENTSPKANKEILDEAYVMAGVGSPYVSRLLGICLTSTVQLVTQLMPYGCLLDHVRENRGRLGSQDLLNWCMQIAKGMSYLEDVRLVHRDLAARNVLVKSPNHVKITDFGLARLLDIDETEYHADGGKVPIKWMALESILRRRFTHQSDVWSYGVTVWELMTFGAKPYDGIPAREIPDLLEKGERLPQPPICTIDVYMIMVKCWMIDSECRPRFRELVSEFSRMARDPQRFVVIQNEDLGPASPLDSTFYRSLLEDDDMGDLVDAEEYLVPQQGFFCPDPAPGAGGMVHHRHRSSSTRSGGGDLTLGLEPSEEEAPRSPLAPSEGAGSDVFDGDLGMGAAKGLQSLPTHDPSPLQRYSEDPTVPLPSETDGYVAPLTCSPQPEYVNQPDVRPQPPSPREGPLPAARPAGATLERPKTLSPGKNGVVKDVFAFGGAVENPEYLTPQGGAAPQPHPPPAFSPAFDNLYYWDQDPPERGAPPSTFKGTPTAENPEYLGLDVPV
Procedure: Compounds of the present invention were tested for EGFR, ErbB-2, and ErbB-4 protein tyrosine kinase inhibitory activity in substrate phosphorylation assays using enzymes purified from a baculovirus expression system. Reagent production and assay methodology were conducted essentially as described (Brignola, P.S., et al, (2002) J. Biol. Chem. v. 277 in press).
The method measures the ability of the isolated enzyme to catalyse the transfer of the γ-phosphate from ATP onto tyrosine residues in a biotinylated synthetic peptide (biotin-Ahx-RAHEEIYHFFFAKKK-amide). Reactions were performed in 96-well polystyrene round-bottom plates in a final volume of 45 μL. Reaction mixtures contained 50 mM MOPS (pH 7.5), 2 mM MnCl2, 10 μM ATP, 0.125 μCi [γ-^33P] ATP per reaction, 2 μM peptide substrate, and I mM dithiothreitol. Reactions were initiated by adding 1 pmol (20 nM) per reaction of the indicated enzyme. The reaction was allowed to proceed for 15 minutes, terminated and quantified using a scintillation proximity assay procedure as described in McDonald, O. B., Antonsson, B., Arkinstal, S., Marshall, C. J., and Wood, E. R. (1999) Analytical Biochemistry, 268, 318-329.
Compounds under analysis were dissolved in Me2SO to 0.5 mM and serially diluted 1 to 3 with Me2SO through eleven columns of a 96 well plate. 1 μL of each concentration was transferred to the corresponding well of the assay plate. This creates a final compound concentration range from 0.00019 to 11.1 μM.
The data for dose responses were plotted as % Control calculated with the data reduction formula 100*(U1−C2)/(C1−C2) versus concentration of compound and fitted to the curve described by: y=((Vmax*x)/(K+x)) where Vmax is the upper asymptote and K is the IC50. Cellular assays: Methylene Blue Growth Inhibition Assay

Compound	IC50 [1] [nM]	IC50 [2] [nM]	melting point [°C]
Fc1cccc(COc2ccc(Nc3ncnc4cc(C#Cc5ncccn5)sc34)cc2Cl)c1 [Example 77, N-{3-chloro-4-[(3-fluorobenzyl)oxy]phenyl}-6-(pyrimidin-2-ylethynyl)thieno[3,2-d]pyrimidin-4-amine]			236 to 240
Fc1cccc(COc2ccc(Nc3ncnc4cc(C#Cc5ccccn5)sc34)cc2Cl)c1 [Example 78, N-{3-chloro-4-[(3-fluorobenzyl)oxy]phenyl}-6-(pyridin-2-yiethynyl)thieno[3,2-d]pyrimidin-4-amine]			242
Fc1cccc(COc2ccc(Nc3ncnc4sc(C#Cc5nccs5)cc34)cc2Cl)c1 [Example 101, N-{3-chloro-4-[(3-fluorobenzyl)oxy]phenyl}-6-(1,3-thiazol-2-ylethynyl)thieno[2,3-d]pyrimidin-4-amine]			204
CN1CCN(CC(=O)NCC#Cc2cc3ncnc(Nc4ccc(OCc5cccc(F)c5)c(Cl)c4)c3s2)CC1 [N-{3-[4-({3-Chloro-4-[(3-fluorobenzyl)oxy]phenyl}amino)thieno[3,2-d]pyrimidin-6-yl]prop-2-ynyl}-2-(4-methylpiperazin-1-yl)acetamide]	< 1500	< 31.6	
CS(=O)(=O)CCNC(=O)NCC#Cc1cc2c(Nc3ccc(OCc4cccc(F)c4)c(Cl)c3)ncnc2s1 [N-{3-[4-({3-chloro-4-[(3-fluorobenzyl)oxy]phenyl}amino)thieno[2,3-d]pyrimidin-6-yl]prop-2-ynyl}-N′-[2-(methylsulfonyl)ethyl]urea]	< 1500	< 31.6	
O=C(NCC#Cc1cc2ncnc(Nc3ccc(OCc4cccc(F)c4)c(Cl)c3)c2s1)c1ccc2[nH]ccc2c1 [N-{3-[4-({3-chloro-4-[(3-fluorobenzyl)oxy]phenyl}amino)thieno[3,2-d]pyrimidin-6-yl]prop-2-ynyl}-1H-indole-5-carboxamide]	1500 to 5000	31.6 to 100	
O=C(Cc1ccc(Cl)c(Cl)c1)NCC#Cc1cc2ncnc(Nc3ccc(OCc4cccc(F)c4)c(Cl)c3)c2s1 [N-{3-[4-({3-chloro-4-[(3-fluorobenzyl)oxy]phenyl}amino)thieno[3,2-d]pyrimidin-6-yl]prop-2-ynyl}-2-(3,4-dichlorophenyl)acetamide]	> 5000	> 100	
O=C(NCC#Cc1cc2ncnc(Nc3ccc(OCc4cccc(F)c4)c(Cl)c3)c2s1)c1csc(-c2ccncc2)n1 [N-{3-[4-({3-chloro-4-[(3-fluorobenzyl)oxy]phenyl}amino)thieno[3,2-d]pyrimidin-6-yl]prop-2-ynyl}-2-pyridin-4-yl-1,3-thiazole-4-carboxamide]	1500 to 5000	31.6 to 100	
Fc1cccc(COc2ccc(Nc3ncnc4sc(C#Cc5ncccn5)cc34)cc2Cl)c1 [N-{3-chloro-4-[(3-fluorobenzyl)oxy]phenyl)-6-(pyrimidin-2-ylethynyl)thieno[2,3-d]pyrimidin-4-amine]	1500 to 5000	31.6 to 100	225

More lines, now with the values ahead:

IC50 [1] [nM]	IC50 [2] [nM]	melting point [°C]	Compound
1500 to 5000	31.6 to 100		O=C(NCC#Cc1cc2ncnc(Nc3ccc(OCc4cccc(F)c4)c(Cl)c3)c2s1)c1c(Cl)cccc1Cl [2,6-dichloro-N-{3-[4-({3-chloro-4-[(3-fluorobenzyl)oxy]phenyl}amino)thieno[3,2-d]pyrimidin-6-yl]prop-2-ynyl}benzamide]
		180	Fc1cccc(COc2ccc(Nc3ncnc4sc(C#Cc5ccccn5)cc34)cc2Cl)c1 [Example 99, N-{3-chloro-4-[(3-fluorobenzyl)oxy]phenyl}-6-(pyridin-2-ylethynyl)thieno[2,3-d]pyrimidin-4-amine]
< 1500	< 31.6		CS(=O)(=O)CCNCC#Cc1cc2ncnc(Nc3ccc(OCc4cccc(F)c4)c(Cl)c3)c2s1 [N-{3-Chloro-4-[(3-fluorobenzyl)oxy]phenyl}-6-(3-{[2-(methylsulfonyl)ethyl]amino}prop-1-ynyl)thieno[3,2-d]pyrimidin-4-amine hydrochloride]
< 1500	< 31.6		CN(C)CCNC(=O)NCC#Cc1cc2c(Nc3ccc(OCc4cccc(F)c4)c(Cl)c3)ncnc2s1 [N-{3-[4-({3-chloro-4-[(3-fluorobenzyl)oxy]phenyl}amino)thieno[2,3-d]pyrimidin-6-yl]prop-2-ynyl)N′-[2-(dimethylamino)ethyl]urea]
1500 to 5000	31.6 to 100		O=C(CCc1ccc(F)cc1)NCC#Cc1cc2ncnc(Nc3ccc(OCc4cccc(F)c4)c(Cl)c3)c2s1 [N-{3-[4-({3-chloro-4-[(3-fluorobenzyl)oxy]phenyl}amino)thieno[3,2-d]pyrimidin-6-yl]prop-2-ynyl}-3-(4-fluorophenyl)propanamide]
> 5000	> 100		CC(C)CN(CC#Cc1cc2ncnc(Nc3ccc(OCc4cccc(F)c4)c(Cl)c3)c2s1)CC(C)C [N-{3-chloro-4-[(3-fluorobenzyl)oxy]phenyl}-6-[3-(diisobutylamino)prop-1-ynyl]thieno[3,2-d]pyrimidin-4-amine]
